Experimental data as given in ChEMBL document CHEMBL1201862, “PubChem BioAssay data set” (2004).
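Five concentrations, 48 hours, 96-well plates. GI50 marks 50% less growth.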 Active and inactive are the calls of the source. Rule as the data show it: active = GI50 up to about 1.1 µM and inactive = higher.

Assays:
Assay in all cases: growth of human tumour cells (NCI), 48 h
KM-20L2 = test system: KM-20L2
XF498 = test system: XF498
DMS-114 = test system: DMS-114
SNB-78 = test system: SNB-78
RXF 631 = test system: RXF 631
HOP-18 = test system: HOP-18
DLD-1 = test system: DLD-1
DMS-273 = test system: DMS-273

SMILES	GI50 (KM-20L2)	GI50 (XF498)	GI50 (DMS-114)	GI50 (SNB-78)	GI50 (RXF 631)	GI50 (HOP-18)	GI50 (DLD-1)	GI50 (DMS-273)
COc1cc2c3c(c1OC)/C(=N/OS(=O)(=O)c1ccc(C)cc1)CC3N(S(=O)(=O)c1ccc(C)cc1)CC2 (stereo unspecified)	> 100 µM (inactive)	> 100 µM (inactive)	> 100 µM (inactive)	41.7 µM (inactive)	66.1 µM (inactive)	> 100 µM (inactive)	> 100 µM (inactive)	> 100 µM (inactive)
O=C(/C=C/c1ccccc1O)c1ccccc1Cl	> 100 µM (inactive)	40.5 µM (inactive)	21.3 µM (inactive)	47.2 µM (inactive)	52.7 µM (inactive)	49.4 µM (inactive)	50.1 µM (inactive)	40.2 µM (inactive)
Cc1ccc(S(=O)(=O)N/N=C/c2oc(-c3ccncc3)c(-c3ccncc3)c2[N+](=O)[O-])cc1	> 100 µM (inactive)	> 100 µM (inactive)	–	> 100 µM (inactive)	> 100 µM (inactive)	> 100 µM (inactive)	> 100 µM (inactive)	> 100 µM (inactive)
CCOc1ccccc1NC(=O)C(C#N)C1=C(Cl)C(=O)c2ccccc2C1=O (stereo unspecified)	1.93 µM (inactive)	2.29 µM (inactive)	0.743 µM (active)	3.32 µM (inactive)	2.09 µM (inactive)	1.5 µM (inactive)	1.85 µM (inactive)	1.88 µM (inactive)
